From article PMC6287471 (International Journal for Parasitology: Drugs and Drug …, 2018)
Structures can show the parent of a compound that is named as a salt.

Key:
Assay type in all cases: cell-based
Hco-ACC-2 F200Y = target: T1, Hco-ACC-2 F200Y (Haemonchus contortus, UniProt A0A219KWM7, F200Y); assay: Two-electrode voltage clamp of Hco-ACC-2 F200Y mutant in Xenopus laevis oocytes
T1 sequence (A0A219KWM7 18-443 F200Y): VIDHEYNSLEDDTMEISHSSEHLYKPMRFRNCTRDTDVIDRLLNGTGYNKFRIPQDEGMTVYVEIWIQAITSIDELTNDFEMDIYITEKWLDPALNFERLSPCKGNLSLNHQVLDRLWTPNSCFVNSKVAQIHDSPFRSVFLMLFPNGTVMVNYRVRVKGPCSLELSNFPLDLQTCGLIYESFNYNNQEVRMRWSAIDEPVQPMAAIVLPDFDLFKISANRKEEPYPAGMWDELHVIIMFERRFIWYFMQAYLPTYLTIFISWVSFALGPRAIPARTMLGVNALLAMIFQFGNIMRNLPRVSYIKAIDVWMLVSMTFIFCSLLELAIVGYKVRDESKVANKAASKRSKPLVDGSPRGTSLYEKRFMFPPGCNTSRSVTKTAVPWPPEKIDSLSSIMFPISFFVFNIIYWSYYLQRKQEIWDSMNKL

Hco-ACC-2 F200W/W248F = target: T2, Hco-ACC-2 F200W/W248F (Haemonchus contortus, UniProt A0A219KWM7, F200W/W248F)
T2 sequence (A0A219KWM7 18-443 F200W/W248F): T1 sequence (A0A219KWM7 18-443 F200Y)

Hco-ACC-2 W248F = target: T3, Hco-ACC-2 W248F (Haemonchus contortus, UniProt A0A219KWM7, W248F); assay: Two-electrode voltage clamp of Hco-ACC-2 W248F mutant in Xenopus laevis oocytes
T3 sequence (A0A219KWM7 18-443 W248F): T1 sequence (A0A219KWM7 18-443 F200Y)

Hco-ACC-2 W248Y = target: T4, Hco-ACC-2 W248Y (Haemonchus contortus, UniProt A0A219KWM7, W248Y); assay: Two-electrode voltage clamp of Hco-ACC-2 W248Y mutant in Xenopus laevis oocytes
T4 sequence (A0A219KWM7 18-443 W248Y): T1 sequence (A0A219KWM7 18-443 F200Y)

Hco-ACC-2 F200W = target: T5, Hco-ACC-2 F200W (Haemonchus contortus, UniProt A0A219KWM7, F200W); assay: Two-electrode voltage clamp of Hco-ACC-2 F200W mutant in Xenopus laevis oocytes
T5 sequence (A0A219KWM7 18-443 F200W): T1 sequence (A0A219KWM7 18-443 F200Y)

[1] = EC50 ± standard error, F200Y, F200Y mutant, n ≥ 5 oocytes

Row | Structure (SMILES) | EC50 (Hco-ACC-2 F200Y; [1]) | EC50 (Hco-ACC-2 F200W/W248F) | EC50 (Hco-ACC-2 W248F) | EC50 (Hco-ACC-2 W248Y) | EC50 (Hco-ACC-2 F200W) | EC50 (Hco-ACC-2 F200Y; EC50, F200Y mutant)
1 | CC(=O)OC(C)C[N+](C)(C)C (stereo not drawn) [Methacholine, Acetyl-β-methylcholine Chloride] | 20 ± 1 µM | > 20000 µM | > 1000 µM | > 1000 µM | 644 ± 84 µM | –
2 | CC(C[N+](C)(C)C)OC(N)=O (stereo not drawn) [Urecholine, Carbamyl-β-methylcholine chloride] | 81 ± 3 µM | > 20000 µM | > 1000 µM | > 1000 µM | 2150 ± 215 µM | –
3 | CN1CCC[C@H]1c1cccnc1 [Nicotine] | – | – | – | – | – | 277 ± 8 µM
4 | C[N+](C)(C)CCOC(N)=O [Carbachol, Carbamoylcholine Chloride] | 9.7 ± 0.5 µM | > 20000 µM | > 1000 µM | > 1000 µM | 67 ± 4 µM | –
5 | c1ccc([C@H]2CN3CCSC3=N2)cc1 [Levamisole, Levamisole Hydrochloride] | 39 ± 3 µM | > 20000 µM | > 1000 µM | > 1000 µM | – | –
6 | CN1CCCN=C1/C=C/c1cccs1 [Pyrantel, Pyrantel Citrate Salt] | 44 ± 2 µM | > 20000 µM | > 1000 µM | > 1000 µM | 160 ± 20 µM | –
7 | C[N+](C)(C)CCO [Choline, Choline Chloride] | 650 ± 13 µM | > 20000 µM | > 1000 µM | > 1000 µM | 4770 ± 543 µM | –
